From patent US20240025845A1, “METASTASIS-INHIBITING COMPOSITION OF NOVEL METHYLSULFONAMIDE DERIVATIVE COMPOUND” (KOREA RESEARCH INSTITUTE OF BIOSCIENCE AND BIOTECHNOLOGY, priority 2020, published 2024)

Assays:
[1] = tested on: MDA-MB-231 cells; experiment: Wound healing assay (cancer cell movement); assay type: cell-based, human
Protocol: (§1) In order to evaluate the cytotoxicity of the compound 1-1 according to the present invention, MTT assay was performed on a human breast cancer cell line (MDA-MB-231). Cells used in the experiment were all purchased from the American Type Culture Collection (ATCC). First, 1×10^5 MDA-MB-231 cells were divided into 200 vL of 5×10^3 cells in a 96-well plate using a DMEM medium added with 10% fetal bovine serum (FBS), […] and 50 U/ml penicillin while maintained at 37° C. under 5% CO2 air, and then incubated in a CO2 incubator for 24 hours. The purchased compound 1-1 of the present invention was treated at a concentration of 50 vM and incubated for 24 hours under the same culture conditions. After the incubation was completed, the culture medium was removed and 50 vL of 10 mg/mL MTT solution [3-(4,5-dimethylthiazol-2-yl)-2,5-diphenyltetrazolium bromide] (Sigma, St. Louis, MO, USA) was added per well and reacted at 37° C. for 4 hours. Subsequently, a supernatant was removed carefully so as to […] formazan crystals at the bottom, and 50 μL of dimethyl sulfoxide (DMSO) was added per well, and then shaken for 10 minutes, and an optical density (OD) at 590 nm was measured. […] The number of moved cells was quantified using an optical microscope (×100). […]

[2] = tested on: angiogenesis; experiment: chorioallantoic membrane (CAM) angiogenesis assay; assay type: in vivo; conditions: fertilized egg, 4 μg
Protocol: In order to confirm whether angiogenesis was inhibited using the compound 1-46, which had high stability in vivo, among methylsulfonamide-based derivative compounds discovered as CSE1L inhibitors, a chorioallantoin membrane (CAM) was performed. First, the surface of the fertilized viable egg was wiped with 70% ethanol, incubated at 37° C. for 4 days, and 3 ml of albumin of the viable egg was extracted and then treated with the compound 1-46 at a concentration of 4 μg, and then it was observed whether angiogenesis was inhibited.

[3] = mouse liver metabolic stability assay; assay type: in vitro ADME
[4] = tested on: human breast cancer cell line (MDA-MB-231); experiment: MTT cytotoxicity assay; assay type: cell-based
Protocol: as §1

[5] = tested on: MDA-MB-231 cell lines; experiment: transwell Matrigel invasion chamber assay; assay type: cell-based, human; conditions: MDA-MB-231, 10 and 20 vM, 20 hours, compared to control group
Protocol: as §1

[6] = tested on: mouse breast cancer cell line 4T1; experiment: orthotopic xenograft spontaneous metastasis mouse model (metastatic breast cancer); assay type: in vivo
Source text: In order to test a metastasis-inhibiting effect of the compound 1-1, which was a CSE1L inhibiting compound, in a mouse model, the metastasis-inhibiting effect was confirmed using an orthotopic xenograft spontaneous metastasis model. First, a method of examining metastasis of cancer formed by subcutaneous transplantation of mouse breast cancer cell line 4T1 (murine breast cancer cell) to other tissues was used. Female 6-week-old nude mice (BALB/c) were used. To make solid cancer, the mouse breast cancer cell line 4T1 (1×10^5 murine breast cancer cells) was transplanted into the 4th Mammary Fat Pad of the mouse, and from 5 days later, the compound 1-1 was treated at 10 mg/kg and 50 mg/kg every day for 3 weeks, respectively. […] In addition, after 25 days, the mice were autopsied to confirm the number of cancer cells metastasizing to the lung. […] Through the evaluation of anti-metastasis efficacy using the metastasis breast cancer model, the metastasis-inhibiting efficacy of the compound 1-1 was confirmed through selective regulation of the CSE1L function by binding to the target protein CSE1L. Accordingly, a novel derivative was synthesized in order to secure a substance showing better activity than these substances.

[7] = biological target: T1, CSE1L (Homo sapiens, UniProt P55060); experiment: thermal shift assay (TSA) in cells, remaining CSE1L by Western blot; assay type: binding; conditions: cells treated 10 vM, 24 hours; 42-60° C. for 5 minutes; vs DMSO
T1 construct: endogenous in cells
T1 sequence (P55060 1-971): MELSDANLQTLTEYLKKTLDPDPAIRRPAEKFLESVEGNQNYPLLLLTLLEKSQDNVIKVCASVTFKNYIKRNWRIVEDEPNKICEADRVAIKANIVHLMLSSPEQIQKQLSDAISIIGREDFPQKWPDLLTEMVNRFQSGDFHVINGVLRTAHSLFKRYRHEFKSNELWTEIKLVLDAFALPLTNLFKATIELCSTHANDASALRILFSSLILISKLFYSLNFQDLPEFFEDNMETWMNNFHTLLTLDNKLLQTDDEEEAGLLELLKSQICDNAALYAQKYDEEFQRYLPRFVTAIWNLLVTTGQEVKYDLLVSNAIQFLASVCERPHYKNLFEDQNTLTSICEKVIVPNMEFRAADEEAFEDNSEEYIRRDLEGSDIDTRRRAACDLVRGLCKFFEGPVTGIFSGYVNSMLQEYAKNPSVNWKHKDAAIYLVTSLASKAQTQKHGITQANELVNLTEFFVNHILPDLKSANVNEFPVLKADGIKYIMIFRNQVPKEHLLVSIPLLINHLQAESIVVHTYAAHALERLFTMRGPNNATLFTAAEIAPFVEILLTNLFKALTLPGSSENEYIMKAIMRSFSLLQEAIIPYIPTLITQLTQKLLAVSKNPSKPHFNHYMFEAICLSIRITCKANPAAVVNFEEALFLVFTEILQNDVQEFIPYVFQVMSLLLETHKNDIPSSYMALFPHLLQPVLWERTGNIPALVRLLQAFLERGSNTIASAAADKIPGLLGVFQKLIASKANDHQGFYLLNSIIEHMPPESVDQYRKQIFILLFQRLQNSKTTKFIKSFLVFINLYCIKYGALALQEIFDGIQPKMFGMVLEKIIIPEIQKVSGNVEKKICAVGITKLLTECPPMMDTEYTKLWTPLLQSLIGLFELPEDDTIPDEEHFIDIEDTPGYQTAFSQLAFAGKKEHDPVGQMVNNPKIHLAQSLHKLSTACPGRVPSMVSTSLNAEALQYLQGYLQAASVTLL
Source text: A CSE1L protein was known as nuclear exportin 2, a type of nuclear exportin that played a role in moving importin-α from the intra-nucleus to the cytoplasm as a cargo protein of nuclear transport (Solsbacher, J.; Maurer, P.; Bischoff, F. R.; Schlenstedt, G. Mol. Cell. Biol. 1998, 18, 6805.). In general, importin-α and Ran-GTP, which were cargo proteins, bound to exportin CSE1L in the nucleus and transported to the cytoplasm through nuclear pores, and the obtained CSE1L-bound Ran-GTP protein was rapidly hydrolyzed to Ran GDP to have the form of a cargo free state (a state in which importin-ax was not bound). Through this series of processes, the protein played a role of substance transport. As another function, the CSE1L protein was particularly abundant in cancer cells or tissues, and reported to have roles and functions in metastasis, such as carcinogenesis, cancer cell movement, and cancer cell invasion, but since the exact mechanism has not been reported yet, it was intended to predict the interaction with a novel metastasis-targeting protein (CSE1L) and develop effective substances using molecular modeling tools. Based on a binding site of the previously identified fusarisetin compound and the target protein (CSE1L), a virtual search was conducted using about 1.5 million compound libraries (commercial focused libraries) to predict combinable compounds. […]

[8] = tested on: cancer cells; experiment: real-time cell movement with Holomonitor device; assay type: cell-based

Row | metabolic stability [3] [%] | SMILES | cell movement of cancer cell line (wound healing) ([1]; MDA-MB-231, compared to control group, concentration not given) | angiogenesis inhibitory activity [2] | cytotoxicity (MTT) ([4]; MDA-MB-231, 10 to 100 vM) | number of invaded cancer cells [5] | change in body weight (toxicity) ([6]; 10 mg/kg and 50 mg/kg every day for 3 weeks, compared to negative control group) | formation of cancer tissue in other organs (metastasis, bioluminescence) ([6]; 10 mg/kg and 50 mg/kg every day, vs control group) | volume and capacity of the tumors ([6]; 10 mg/kg and 50 mg/kg, drug treatment period (16 to 24 days)) | number of cancer cells metastasizing to the lung ([6]; autopsy after 25 days, compared to control group) | cell movement of cancer cell line (wound healing) ([1]; MDA-MB-231, 10 and 20 μM, 24 hours, compared to control group) | cytotoxicity (MTT) ([4]; MDA-MB-231, 50 vM, 24 hours) | amount of remaining CSE1L after heating (thermal stabilization) [7] | invasion and movement of cancer cells in real time [8]
1 | 91.4 | NC(=O)CN(c1ccc(C(F)(F)F)cc1)S(=O)(=O)CCC(F)(F)F [Compound 1-46] | significantly reduced | excellent angiogenesis inhibitory activity | no cytotoxicity | significantly reduced |  |  |  |  |  |  |  | 
2 | 82.2 | NC(=O)CN(c1ccc(C(F)(F)F)cc1)S(=O)(=O)CC(F)(F)F [Compound 1-45] |  |  |  |  |  |  |  |  |  |  |  | 

Row | SMILES | metabolic stability [3] [%] | cell movement of cancer cell line (wound healing) ([1]; MDA-MB-231, compared to control group, concentration not given) | angiogenesis inhibitory activity [2] | cytotoxicity (MTT) ([4]; MDA-MB-231, 10 to 100 vM) | number of invaded cancer cells [5] | change in body weight (toxicity) ([6]; 10 mg/kg and 50 mg/kg every day for 3 weeks, compared to negative control group) | formation of cancer tissue in other organs (metastasis, bioluminescence) ([6]; 10 mg/kg and 50 mg/kg every day, vs control group) | volume and capacity of the tumors ([6]; 10 mg/kg and 50 mg/kg, drug treatment period (16 to 24 days)) | number of cancer cells metastasizing to the lung ([6]; autopsy after 25 days, compared to control group) | cell movement of cancer cell line (wound healing) ([1]; MDA-MB-231, 10 and 20 μM, 24 hours, compared to control group) | cytotoxicity (MTT) ([4]; MDA-MB-231, 50 vM, 24 hours) | amount of remaining CSE1L after heating (thermal stabilization) [7] | invasion and movement of cancer cells in real time [8]
3 | CS(=O)(=O)N(CC(N)=O)c1ccc(C(Cl)(Cl)Cl)cc1 [Compound 1-1, 2-[N-methylsulfonyl-4-(trichloromethyl)anilino]acetamide] | 89.8 |  |  |  | significantly reduced | no change in body weight | showed a tendency to inhibit the formation of cancer tissue in other organs | not suppressed | significantly reduced | significantly reduced | no cytotoxicity | not reduced, but continuously maintained through structural stabilization | inhibited the invasion and movement of cancer cells
